# Data reported in ChEMBL document CHEMBL1130983, “New acetylene based histamine H3 receptor antagonists derived from the marine natural product verongamine” (Bioorg Med Chem Lett, 1998).
# How the values were obtained:
# [1] = target: T1, Histamine H3 receptor (Rattus norvegicus, UniProt Q9QYN8); assay: Inhibition of [3H]- N-alpha-methylhistamine from histamine H3 receptor
# [2] = species on record: Cavia porcellus; assay: In vitro activity on K+ induced R-alpha methyl histamine mediated inhibition of norepinephrine release from guinea pig cardiac synaptosomes; format: functional
# [3] = species on record: Rattus norvegicus; assay: Effective dose was evaluated for blood brain penetration using ex vivo binding techniques; format: functional
# [4] = target: T1, Histamine H3 receptor; assay: Antagonistic activity was evaluated against histamine H3 receptor using [3H]- N-alpha-methylhistamine as radioligand in experiment 2; format: functional
# T1 sequence (Q9QYN8 whole entry): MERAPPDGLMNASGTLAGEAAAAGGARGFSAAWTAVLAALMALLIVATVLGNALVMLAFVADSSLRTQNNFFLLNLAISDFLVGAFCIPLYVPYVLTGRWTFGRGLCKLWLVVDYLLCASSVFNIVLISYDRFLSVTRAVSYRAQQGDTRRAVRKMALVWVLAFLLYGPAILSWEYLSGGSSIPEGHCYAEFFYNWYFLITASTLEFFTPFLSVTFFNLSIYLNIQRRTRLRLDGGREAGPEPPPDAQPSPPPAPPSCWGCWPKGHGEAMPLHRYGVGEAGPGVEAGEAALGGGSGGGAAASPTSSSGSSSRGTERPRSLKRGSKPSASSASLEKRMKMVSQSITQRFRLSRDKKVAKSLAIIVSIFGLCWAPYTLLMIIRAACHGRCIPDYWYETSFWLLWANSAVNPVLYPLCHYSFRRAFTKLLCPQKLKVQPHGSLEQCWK
Structure (SMILES),Ki [1] [nM],Release [2] [%],ED50 [3] [mg/kg],Ki [4] [nM]
COc1ccc(C/C(=N\O)C(=O)NCCc2c[nH]cn2)cc1Br [VERONGAMINE],0.5,–,–,–
C(#CCCC1CCCC1)CCc1c[nH]cn1,–,111,0.48,–
Cn1cncc1CCN,1,106,–,–
S=C(NC1CCCCC1)N1CCC(c2cnc[nH]2)CC1 [THIOPERAMIDE],–,–,–,1.54
C(#CCCC1CCCCC1)CCc1c[nH]cn1,–,122,0.43,–
